From EP0812190B1 (priority 1993, dated 1995)
Counter-ions that a name gives are not always drawn. Like-named read-outs stand apart in the source and are kept apart here. Marks after values point to notes of the source that are not given here.

What was measured:
[1] = target: T1, MAO-B (Rattus norvegicus, UniProt P19643); experiment: Rat brain MAO inhibition by propargylamines (Table IA), MAO-B; assay type: biochemical; design: in a rat brain preparation of MAO; from tissue; host or cells: rat brain preparation; conditions: ratio between epimers, MAO-B
T1 sequence (P19643 1-520): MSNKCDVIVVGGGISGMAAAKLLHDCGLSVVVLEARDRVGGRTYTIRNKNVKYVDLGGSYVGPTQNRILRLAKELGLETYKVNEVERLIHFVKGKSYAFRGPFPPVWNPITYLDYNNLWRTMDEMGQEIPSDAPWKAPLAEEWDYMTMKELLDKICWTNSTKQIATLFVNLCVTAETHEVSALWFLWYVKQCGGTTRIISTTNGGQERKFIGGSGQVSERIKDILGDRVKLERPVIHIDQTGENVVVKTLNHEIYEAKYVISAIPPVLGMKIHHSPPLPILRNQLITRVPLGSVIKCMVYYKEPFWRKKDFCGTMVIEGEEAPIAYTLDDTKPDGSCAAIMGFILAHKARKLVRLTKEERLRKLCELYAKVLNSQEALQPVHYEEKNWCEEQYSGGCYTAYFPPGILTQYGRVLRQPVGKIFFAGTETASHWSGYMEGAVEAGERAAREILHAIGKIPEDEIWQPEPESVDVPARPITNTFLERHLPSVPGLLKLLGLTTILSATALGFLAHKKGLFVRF

[2] = target: T2, MAO-A (Rattus norvegicus, UniProt P21396); experiment: Rat brain MAO inhibition by propargylamines (Table IA), MAO-A; assay type: biochemical; design: MAO activity determined in brain and liver using the general technique described above; from tissue; host or cells: brain and liver of treated rats; conditions: ratio between epimers
T2 sequence (P21396 1-526): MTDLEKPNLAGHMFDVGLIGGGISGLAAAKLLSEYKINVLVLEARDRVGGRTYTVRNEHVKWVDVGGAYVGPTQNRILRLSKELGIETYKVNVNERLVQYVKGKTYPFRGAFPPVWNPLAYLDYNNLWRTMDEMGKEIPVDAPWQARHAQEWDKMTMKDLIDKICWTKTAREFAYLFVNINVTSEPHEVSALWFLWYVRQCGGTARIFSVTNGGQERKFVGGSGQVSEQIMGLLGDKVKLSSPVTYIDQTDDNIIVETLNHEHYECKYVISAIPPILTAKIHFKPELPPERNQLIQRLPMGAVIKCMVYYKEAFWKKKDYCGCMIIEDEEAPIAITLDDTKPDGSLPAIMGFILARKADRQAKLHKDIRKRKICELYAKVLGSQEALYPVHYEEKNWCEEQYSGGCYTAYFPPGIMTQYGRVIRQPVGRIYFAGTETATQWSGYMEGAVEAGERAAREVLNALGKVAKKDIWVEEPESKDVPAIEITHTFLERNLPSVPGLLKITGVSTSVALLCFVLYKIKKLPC

[3] = tested on: maximal electroshock seizures; experiment: animal or person; conditions: for ED50: Mus musculus, ip; for mice protected: 100 mg/kg
Excerpt: (§1) The MES test is a classical model to indicate efficacy for partial and generalized seizures in humans. […] Some agents, however, that prevent seizure spread have the side effect of lowering seizure threshold. These agents therefore have both proconvulsive and anticonvulsive side effects.

[4] = tested on: maximal electroshock seizures; conditions: rats, p.o., 50 mg/kg
Excerpt: as §1

[5] = tested on: haloperidol-induced catalepsy
Method: (+)PAI mesylate, or racemic-PAI mesylate. All drugs were administered i.p. in a volume of 0.2 mL. Two hours later, haloperidol was injected s.c. at a dose of 6mg/kg in a volume of 0.1-0.2 mL. Motor coordination tests were made at 3 hours after giving haloperidol, that is, 5 hours after administering the presumed protective drugs.
Motor coordination tests and rigidity were quantified according to three different parameters: (a) ability to walk the length of a horizontal rod, 80 cm-long; (b) ability co climb down, face down, a vertical rod, 80 cm-long; (c) duration of immobility in an unnatural sitting posture whereby the abdomen of the mouse is pressed against a "wall." Full performance as in haloperidol-untreated mice is given the score of 4 in each test, or a total of 12 in all tests. Poor performance is given a score from 1 to 3.

[6] = tested on: crush injury of the optic nerve
Method: • a) General. […] At short terms, metabolic measurements were monitored in terms of the mitochondrial NADH/NAD ratio, which depends on the activity of the electron transport system, and thus indicate levels of energy production. Changes in ability of the nerve to produce energy as a consequence of injury were determined by comparing NADH levels in response to artificial transient anoxic insult before and after the injury. • b) Surface fluorometry - reflectometry. Monitoring of the intramitochondrial NADH redox state is based on the fact that NADH, unlike the oxidized form NAD^+, fluoresces when illuminated […]. A flexible Y-shaped bundle of optic fibers (light guide) was used to transmit the light to and from the optic nerve. […] Changes in the reflected light were correlated with changes in tissue absorption caused by hemodynamic effects and with movements of the optic nerve secondary to alterations in arterial blood pressure and nerve volume. […] Animal utilization was in accord with the ARVO Resolution on the use of animals in research. Male Sprague-Dawley (SPD) rats weighing 300-400g were anesthetized with sodium pentobarbitone (50 mg/kg intraperitoneally). With the animal's head held in place by a head holder, a lateral canthotomy was performed under a binocular operating microscope and the conjuctiva was incised lateral to the cornea.

[7] = tested on: neurological deficits; conditions: 300 mg/kg
Method: TD50 (median toxic dose). This test measures neurological deficits by the rotorod ataxia test. A mouse is placed on a knurled rod rotating at 6 rpm. It is then determined whether a mouse has the ability to maintain its equilibrium and stay on the rod for one minute in each of three trials.

[8] = tested on: closed head injury; conditions: 24 h after trauma; 0.1 mg/kg i.p. at 0, 4, 8 and 12 h
Method: (§2) Head trauma was induced in male rats under ether anesthesia by a well calibrated weight-drop device that falls over the exposed skull, covering the left cerebral hemisphere, 1-2 mm lateral to the midline, in the midcoronal plane.
(§3) [R] (+)PAI Mesylate was dissolved in water. The rats were injected intraperitoneally at a dose of 0.1 mg/kg, 0, 4, 8 and 12 h after induction of head trauma. Control rats were treated with water at the same times.

[9] = tested on: α-MpT-induced hypokinesia; experiment: Reversal of α-MpT-induced hypokinesia in rats; assay type: in vivo
Method: The drug α-MpT is assumed to inhibit the formation of L-DOPA from tyrosine, and consequently the formation of dopamine itself. Lack of CNS dopamine is expressed as hypoactivity. Six month-old male Wistar rats (from Harlan Orkack, UK) were pretreated with saline, [R] […] Two hours later they received i.p. α-MpT at a dose of 100 mg/kg in 0.3-0.5 mL. Controls received saline. Following this, motor activity was recorded in a computerized activity cage for the duration of 10 hours. […] (+)PAI Mesylate at 2 mg/kg.

[10] = tested on: NMDA-induced cell death of cerebellum cells; experiment: cells
Method: Procedures: Cultures of mechanically dissociated neonatal rat cerebellum. […] The cerebella are then dissociated after 20-25 passages through a sterile 13 gauge, 10 cm long stainless steel needle attached to a 5 ml syringe with an inserted 45 µm pore size nylon sieve. The dissociated cells are centrifuged at 200g for 5 minutes, the supernatant discarded and the cells resuspended in enriched medium. The cell viability is determined by the trypan blue exclusion test. […] After 4 days in culture, the media are replaced with media containing the desired test compounds. Experiments are done in duplicate and repeated 2 or 3 times. […] Nerve cell survival is evaluated by phase contrast microscopy and trypan blue staining after 24 h.

[11] = tested on: closed head injury; conditions: 0.1 mg/kg i.p. at 0, 4, 8 and 12 h after head trauma
Method: as §2
These criteria, referred to as the Neurological Severity Score (NSS), consist of a series of reflexes and motor functions. Points are given based on deficits in these criteria. At 24h the rats were reevaluated.
as §3

[12] = tested on: minimal seizure threshold; conditions: 141 mg/kg
Method: Timed Intravenous Infusion of Metrazol Test. This test measures the minimal seizure threshold of each animal. […] The time is then recorded (sec) from the start of infusion until the appearance of the first twitch (first focal seizure) and onset of clonus (clonic seizure).

[13] = tested on: minimal seizure threshold; conditions: literature (Kupferberg); cited from earlier work
[14] = Rattus norvegicus, 24 h, read-out: Percent Protection
[15] = Rattus norvegicus, 24 h, read-out: Surviving Cells

Compound: C#CCNC1CCCc2ccccc21 (racemic) [Example 1-PAT, N-propargyl-1-aminotetralin]
- RELATIVE POTENCY R/S B [1]: 0.5
- RELATIVE POTENCY R/S A [2]: 4

Compound: C#CCN[C@@H]1CCc2ccccc21.Cl [[R](+)PAI HCl, R-(+)-N-Propargyl-1-aminoindan hydrochloride]
- ED50 [3]: 79 mg/kg
- animals protected from seizures [4]: three out of four

Compound: C#CCN[C@@H]1CCc2ccccc21.CS(=O)(=O)O [[R](+)PAI Mesylate, R-(+)-N-propargyl-1-aminoindan mesylate]
- % of control ([5]; 3.0 mg/kg i.p.): 60%
- Score+SE ([5]; 3.0 mg/kg i.p.): 6.4±0.5
- % of control ([5]; 5.0 mg/kg i.p.): 73%
- Score+SE ([5]; 5.0 mg/kg i.p.): 8.7±0.9
- Score+SE ([5]; 10 mg/kg i.p.): 11.3±0.3
- % of control ([5]; 10 mg/kg i.p., listed as [R] (+)PAI Mesylate, mesylate): 94%
- % of control ([5]; 10 mg/kg i.p., listed as [R] (+)PAI mesylate, mesylate): ≈ 94%
- % of control ([5]; 15 mg/kg i.p.): 90%
- Score+SE ([5]; 15 mg/kg i.p.): 10.8±0.5
- Score+SE ([5]; […] i.p. (free base), 2 h before haloperidol 6mg/kg s.c., max score 12): 7.2±1
- injury-induced reduction in energy production (NADH response to anoxia) ([6]; 2 mg/kg i.p. immediately after injury): blocked the injury-induced reduction in energy production
- CAP amplitude (Mean ± Std. Error.) ([6]; single injection 0.5 mg/kg immediately after injury, 14 days later): 2104 ± 313 µV
- acute neurotoxicity ([7]; mouse, in vivo): did not show any neurotoxicity
- mice protected [3]: one out of three
- % H2O in the brain [8]: 82.1 ± 0.6 %
- Score (total motor activity, 10 hours) ([9]; 2 mg/kg i.p., 2 h before α-MpT 100 mg/kg i.p., SE in the line below): 14,132**
- % of control ([9]; 2 mg/kg i.p., relative to saline control, listed as [R] (+)PAI Mesylate, mesylate): 89%
- % of control ([9]; 2 mg/kg i.p., relative to saline control, mesylate): about 90%
- % of control ([9]; 5 mg/kg i.p.): 81%
- Score (total motor activity, 10 hours) ([9]; 5 mg/kg i.p.): 12,893*
- inhibition at 0.01 µM [10, 14]: 2%
- inhibition at 10 µM [10, 14]: 27%
- viability at 1 µM [10, 15]: 22%
- viability at 10 µM [10, 15]: 37%
- Percent Protection ([10]; cerebellar cell cultures, 1440 min, 1 µM): 12%
- Surviving Cells ([10]; rat, cerebellar cell cultures, 24 h, 0.01 µM): 12% of untreated controls
- NSS 1 h [11]: 16.7
- NSS 24 h [11]: 10.2
- Δ NSS (1h - 24h) [11]: 6.5 ± 0.7

Compound: C#CCN[C@H]1CCc2ccccc21 [[S](-)PAI HCl, S-(-)-N-Propargyl-1-aminoindan hydrochloride, reference compound]
- ED50 [3]: 57 mg/kg
- animals protected from seizures [4]: Four out of four

Compound: C#CCN[C@H]1CCc2ccccc21 [[S](-)PAI Mesylate, reference compound]
- acute neurotoxicity ([7]; mice): four out of four mice showed neurotoxicity and spasticity
- time to first focal seizure and onset of clonus [12]: reduces the time
- mice protected [3]: three out of three

Compound: NC(=O)N1c2ccccc2C=Cc2ccccc21 [carbamazepine]
- time to first focal seizure and onset of clonus [13]: do not show this effect

Compound: O=C1NC(=O)C(c2ccccc2)(c2ccccc2)N1 [phenytoin]
- time to first focal seizure and onset of clonus [13]: do not show this effect

Compound: N-Methyl-N-propargyl-1-aminotetralin [Example 2-MPAI]
- RELATIVE POTENCY +/- B [1]: 0.2
- RELATIVE POTENCY +/- A [2]: 3
